Source: patent publication US20240101566A1, “TRICYCLIC UBIQUITIN SPECIFIC PROTEASE 1 INHIBITOR AND USE THEREOF” (SHANDONG XUANZHU PHARMA CO., LTD., priority 2021, published 2024)

Assays:
[1] = parameters: species or system mice; settings: mouse, in vivo, iv, 5 mg/kg
Method: Experiment Example 4 Pharmacokinetic Experiment of Compounds of the Present Disclosure 1. Test compounds: the compounds in the examples of the present disclosure, prepared according to the examples in the specification of the present disclosure. [table] (1) Intravenous administration (iv): 2.54 mg of compound 11 was taken, added with 0.495 ml of DMSO solution to be dissolved by vortex and ultrasound, added with 0.495 ml of PEG400 to be mixed by vortex, and then added with 1.484 ml of 28% HP-β-CD to be mixed by vortex to obtain a clear solution, with a concentration of 1 mg/ml. (2) Oral administration (po): 3.33 mg of compound 11 was taken, added with 3.243 ml of solvent (2% HPC+0.1% Tween 80), and ground evenly to obtain a uniform suspension, with a concentration of 1 mg/ml. The test compounds were administered intravenously (iv), with an administration dosage of 5 mg/kg and an administration volume of 5 ml/kg. The test compounds were administered orally (po), with an administration dosage of 10 mg/kg and an administration volume of 10 ml/kg. […] LC-MS/MS was to be analyzed.

[2] = target: Recombinant Human His6-USP1/His6-UAF1 Complex Protein (Homo sapiens (Human), UniProt O94782); assay: In-vitro enzymatic activity on USP1, first experimental method (Ub-Rho substrate, 15 min incubation); type: biochemical; settings: incubation at room temperature 15 minutes, read-out: Inhibitory activities on USP-1, IC50
Method: Experimental Example 1 In-vitro Enzymatic Activities of Compounds of the Present Disclosure
First Experimental Method:
1) The compounds of the present disclosure were prepared to 10 mM with DMSO, and used as test stock solutions.
2) The stock solutions of the compounds of the present disclosure were diluted in a 4-fold gradient for 10 concentrations, with a maximum concentration of 10 mM.
3) The diluted compounds of the present disclosure were respectively transferred to 384-well plates (diluted by 1,000 folds) by Echo550, 2 multiple wells were set for each concentration, and a final concentration of DMSO was […].
1) An enzyme solution was prepared in 1×test buffer.
2) Ubiquitin Rhodamine 110 protein, CF (UB-Rho), was added into 1×determination buffer to prepare a substrate solution.
3) 10 μL of enzyme solution and 1×reaction buffer were transferred to a 384-well plate, and
4) incubated at room temperature for 15 minutes.
5) 10 μL of substrate solution was added into each well to start the reaction, centrifuged for 30 seconds, and shaken for 30 seconds.
1) Plate reading was carried out on SpectraMax Paradigm for 30 minutes, with an excitation wavelength of 480 nm and an emission wavelength of 540 nm.
2) Data on SpectraMax Paradigm were collected.
An inhibition (% inh) was calculated by the following formula:
[formula] • wherein, Max represented: a luminous signal intensity of a positive control well without adding the compound; • Min represented: a luminous signal intensity of a negative control well without adding the enzyme; and • Signal represented: a luminous signal intensity of the compound of the test sample.
IC50 was Calculated by the Following Formula:
[formula] • wherein, Y represented: % inhibition; and • X represented: the concentration of the compound.

MDA-MB-436 cells = assay: First in-vitro cytological inhibitory activity experiment (CelltiterGlo assay); type: cell-based, human; settings: Experimental Example 2, 4,000 cells/well, 7 days, read-out: In-vitro cytological activities, IC50, MDA-MB-436
Method: Experimental Example 2 First Experiment of in-vitro Cytological Inhibitory Activities of Compounds of the Present Disclosure
A cell line used in the following experiment was as follows: MDA-MB-436: human breast cancer cells.
Experimental method (CelltiterGlo assay)
All cells were adherent cells, the medium was DMEM+10% FBS+1% ITS-G+16 μg/ml glutathione, and the cells were tested in a logarithmic growth phase.
Cells in the logarithmic growth phase were collected and counted by a […]. The cell viability was detected by a trypan blue exclusion method, and the cell viability was kept over 90%. The cell concentration was adjusted to be in a proper range, and 90 μL of cell suspension was added into a 96-well plate respectively.
2.1 DMSO stock solutions of the test compounds were prepared, and concentrations of the stock solutions of the test compounds were 10 mM respectively.
The stock solutions of the test compounds were serially diluted from 10 mM with DMSO in a 3-fold gradient for a total of 8 concentrations. Then, 2 µL of DMSO-gradient diluted compounds were respectively added into 198 µL of culture solutions to give the working stock solutions of the test compounds (a compound concentration was 10-fold higher than the final concentration, and a maximum concentration was […]).
10 μL of compound working stock solution was added into each well in the 96-well plate inoculated with cells (10-fold dilution, a final DMSO concentration was 0.1%).
Solvent control: 0.1% DMSO. […]
A CTG reagent was thawed and the 96-well plate was equilibrated to room temperature for 30 minutes, 60 μL of reagent (Celititer Glo assay kit) was added into each well, shaking was carried out for 2 minutes with a shaker (in the absence of light), and the plate was incubated at room temperature for 20 minutes (in the absence of light). Light signal values were read on a multi-functional microplate reader.
1) inhibition (%)=(DMSO solvent control well reading−test compound well reading)/(DMSO solvent control well reading−blank control well reading)×100%; […]

Sequence of Recombinant Human His6-USP1/His6-UAF1 Complex Protein (O94782 whole entry): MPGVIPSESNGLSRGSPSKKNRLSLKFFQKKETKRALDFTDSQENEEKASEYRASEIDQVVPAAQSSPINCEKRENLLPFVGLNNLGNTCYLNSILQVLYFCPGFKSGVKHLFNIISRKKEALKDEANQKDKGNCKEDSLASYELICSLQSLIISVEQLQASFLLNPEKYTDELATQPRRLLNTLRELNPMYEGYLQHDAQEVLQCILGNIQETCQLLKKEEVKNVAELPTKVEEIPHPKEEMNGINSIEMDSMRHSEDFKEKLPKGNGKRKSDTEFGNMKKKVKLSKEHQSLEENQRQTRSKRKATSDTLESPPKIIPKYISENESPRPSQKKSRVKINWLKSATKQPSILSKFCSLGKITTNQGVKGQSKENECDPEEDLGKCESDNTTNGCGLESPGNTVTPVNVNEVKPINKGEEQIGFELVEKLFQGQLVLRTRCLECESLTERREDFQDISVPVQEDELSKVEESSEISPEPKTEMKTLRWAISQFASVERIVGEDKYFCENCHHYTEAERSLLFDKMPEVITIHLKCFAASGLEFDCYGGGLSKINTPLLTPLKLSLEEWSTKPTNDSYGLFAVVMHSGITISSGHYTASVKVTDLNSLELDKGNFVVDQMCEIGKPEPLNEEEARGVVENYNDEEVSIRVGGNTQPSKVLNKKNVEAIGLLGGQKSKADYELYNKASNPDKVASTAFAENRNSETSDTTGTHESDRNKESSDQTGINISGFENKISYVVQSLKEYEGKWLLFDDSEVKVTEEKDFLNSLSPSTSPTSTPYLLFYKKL
Sequence of Recombinant Human His6-USP1/His6-UAF1 Complex Protein (Q8TAF3 whole entry partner): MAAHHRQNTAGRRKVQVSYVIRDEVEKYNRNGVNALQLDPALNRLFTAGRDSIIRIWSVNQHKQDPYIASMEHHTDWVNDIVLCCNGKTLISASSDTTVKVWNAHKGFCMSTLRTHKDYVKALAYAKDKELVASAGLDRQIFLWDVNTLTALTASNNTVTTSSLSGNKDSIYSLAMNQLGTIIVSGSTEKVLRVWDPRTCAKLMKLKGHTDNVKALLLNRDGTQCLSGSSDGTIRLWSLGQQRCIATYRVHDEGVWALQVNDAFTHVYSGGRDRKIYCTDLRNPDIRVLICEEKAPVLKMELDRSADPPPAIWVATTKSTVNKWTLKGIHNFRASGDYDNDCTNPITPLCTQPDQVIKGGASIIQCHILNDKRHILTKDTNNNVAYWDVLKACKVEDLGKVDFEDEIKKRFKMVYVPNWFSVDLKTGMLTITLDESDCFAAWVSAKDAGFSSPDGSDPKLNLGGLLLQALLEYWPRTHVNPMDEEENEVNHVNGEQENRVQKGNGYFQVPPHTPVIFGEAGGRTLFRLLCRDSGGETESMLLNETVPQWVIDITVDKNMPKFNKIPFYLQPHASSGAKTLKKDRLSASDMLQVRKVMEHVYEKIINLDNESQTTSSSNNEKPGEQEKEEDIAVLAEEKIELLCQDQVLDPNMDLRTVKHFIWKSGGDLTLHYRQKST

In the case of COc1ncnc(C2CC2)c1-c1nc2c3c(nn(Cc4ccc(-c5nc(C(F)(F)F)cn5C)cc4)c3n1)CCCC2 [Compound 11, 4-(4-cyclopropyl-6-methoxypyrimidine-5-yl)-2-(4-(1-methyl-4-(trifluoromethyl)-1H-imidazol-2-yl)benzyl)-6,7,8,9-tetrahydro-2H-1,2,3,5-tetraazabenzo[cd]pyrene], the exposure [1] is reported as “more than 6,000 h*ng/ml”, the IC50 [2] is reported as 22 nM and the IC50 (MDA-MB-436 cells) is reported as 101 nM.
